Tests used:
[1] = tested on: NCI-H522; assay: Cytotoxicity against human NCI-H522 cells assessed as growth inhibition at 10 uM relative to control; assay type: functional; conditions: read-out: GI
[2] = tested on: SF-539; assay: Cytotoxicity against human SF-539 cells assessed as growth inhibition at 10 uM relative to control; assay type: functional; conditions: read-out: GI
[3] = tested on: HOP-62; assay: Cytotoxicity against human HOP-62 cells assessed as growth inhibition at 10 uM relative to control; assay type: functional; conditions: read-out: GI
[4] = tested on: SK-OV-3; assay: Cytotoxicity against human SK-OV-3 cells assessed as growth inhibition at 10 uM relative to control; assay type: functional; conditions: read-out: GI
[5] = tested on: CAKI-1; assay: Cytotoxicity against human CAKI-1 cells assessed as growth inhibition at 10 uM relative to control; assay type: functional; conditions: read-out: GI
[6] = tested on: SW-620; assay: Cytotoxicity against human SW-620 cells assessed as growth inhibition at 10 uM relative to control; assay type: functional; conditions: read-out: GI
[7] = tested on: T47D; assay: Cytotoxicity against human T47D cells assessed as growth inhibition at 10 uM relative to control; assay type: functional; conditions: read-out: GI
[8] = tested on: UO-31; assay: Cytotoxicity against human UO-31 cells assessed as growth inhibition at 10 uM relative to control; assay type: functional; conditions: read-out: GI
[9] = tested on: SNB-75; assay: Cytotoxicity against human SNB-75 cells assessed as growth inhibition at 10 uM relative to control; assay type: functional; conditions: read-out: GI
[10] = tested on: UACC-62; assay: Cytotoxicity against human UACC-62 cells assessed as growth inhibition at 10 uM relative to control; assay type: functional; conditions: read-out: GI
[11] = tested on: HOP-92; assay: Cytotoxicity against human HOP-92 cells assessed as growth inhibition at 10 uM relative to control; assay type: functional; conditions: read-out: GI
[12] = tested on: M14; assay: Cytotoxicity against human M14 cells assessed as growth inhibition at 10 uM relative to control; assay type: functional; conditions: read-out: GI
[13] = tested on: Malme-3M; assay: Cytotoxicity against human Malme-3M cells assessed as growth inhibition at 10 uM relative to control; assay type: functional; conditions: read-out: GI
[14] = tested on: BT-549; assay: Cytotoxicity against human BT-549 cells assessed as growth inhibition at 10 uM relative to control; assay type: functional; conditions: read-out: GI
[15] = tested on: SF-268; assay: Cytotoxicity against human SF-268 cells assessed as growth inhibition at 10 uM relative to control; assay type: functional; conditions: read-out: GI
[16] = tested on: IGROV-1; assay: Cytotoxicity against human IGROV-1 cells assessed as growth inhibition at 10 uM relative to control; assay type: functional; conditions: read-out: GI
[17] = tested on: SR; assay: Cytotoxicity against human SR cells assessed as growth inhibition at 10 uM relative to control; assay type: functional; conditions: read-out: GI
[18] = tested on: MDA-MB-231; assay: Cytotoxicity against human MDA-MB-231 cells assessed as growth inhibition at 10 uM relative to control; assay type: functional; conditions: read-out: GI
[19] = tested on: MDA-MB-468; assay: Cytotoxicity against human MDA-MB-468 cells assessed as growth inhibition at 10 uM relative to control; assay type: functional; conditions: read-out: GI
[20] = tested on: MOLT-4; assay: Cytotoxicity against human MOLT-4 cells assessed as growth inhibition at 10 uM relative to control; assay type: functional; conditions: read-out: GI
[21] = tested on: Hs-578T; assay: Cytotoxicity against human Hs-578T cells assessed as growth inhibition at 10 uM relative to control; assay type: functional; conditions: read-out: GI
[22] = tested on: 786-0; assay: Cytotoxicity against human 786-0 cells assessed as growth inhibition at 10 uM relative to control; assay type: functional; conditions: read-out: GI
[23] = tested on: HT-29; assay: Cytotoxicity against human HT-29 cells assessed as growth inhibition at 10 uM relative to control; assay type: functional; conditions: read-out: GI
[24] = tested on: UO-31; assay: cells; conditions: Homo sapiens, UO-31, 24 h
[25] = tested on: A498; assay: Cytotoxicity against human A498 cells assessed as growth inhibition at 10 uM relative to control; assay type: functional; conditions: read-out: GI
[26] = tested on: K562; assay: Cytotoxicity against human K562 cells assessed as growth inhibition at 10 uM relative to control; assay type: functional; conditions: read-out: GI
[27] = tested on: EKVX; assay: Cytotoxicity against human EKVX cells assessed as growth inhibition at 10 uM relative to control; assay type: functional; conditions: read-out: GI
[28] = tested on: CCRF-CEM; assay: Cytotoxicity against human CCRF-CEM cells assessed as growth inhibition at 10 uM relative to control; assay type: functional; conditions: read-out: GI
[29] = tested on: RPMI-8226; assay: Cytotoxicity against human RPMI-8226 cells assessed as growth inhibition at 10 uM relative to control; assay type: functional; conditions: read-out: GI
[30] = tested on: UO-31; assay: cells; conditions: Homo sapiens, UO-31, light or radiation study
[31] = tested on: LOX IMVI; assay: Cytotoxicity against human LOX IMVI cells assessed as growth inhibition at 10 uM relative to control; assay type: functional; conditions: read-out: GI
[32] = tested on: KM12; assay: Cytotoxicity against human KM12 cells assessed as growth inhibition at 10 uM relative to control; assay type: functional; conditions: read-out: GI
[33] = tested on: MCF7; assay: Cytotoxicity against human MCF7 cells assessed as growth inhibition at 10 uM relative to control; assay type: functional; conditions: read-out: GI
[34] = tested on: RXF 393; assay: Cytotoxicity against human RXF 393 cells assessed as growth inhibition at 10 uM relative to control; assay type: functional; conditions: read-out: GI
[35] = tested on: A549; assay: Cytotoxicity against human A549 cells assessed as growth inhibition at 10 uM relative to control; assay type: functional; conditions: read-out: GI
[36] = tested on: PC-3; assay: Cytotoxicity against human PC-3 cells assessed as growth inhibition at 10 uM relative to control; assay type: functional; conditions: read-out: GI
[37] = tested on: U-251; assay: Cytotoxicity against human U-251 cells assessed as growth inhibition at 10 uM relative to control; assay type: functional; conditions: read-out: GI
[38] = tested on: M14; assay: cells; conditions: Homo sapiens, M14, light or radiation study
[39] = tested on: M14; assay: cells; conditions: Homo sapiens, M14, 24 h

Row | SMILES | inhibition of growth at 10 µM [1] [%] | inhibition of growth at 10 µM [4] [%] | inhibition of growth at 10 µM [5] [%] | inhibition of growth at 10 µM [7] [%] | inhibition of growth at 10 µM [8] [%] | inhibition of growth at 10 µM [9] [%] | inhibition of growth at 10 µM [10] [%] | inhibition of growth at 10 µM [11] [%] | inhibition of growth at 10 µM [14] [%] | inhibition of growth at 10 µM [15] [%] | inhibition of growth at 10 µM [16] [%] | inhibition of growth at 10 µM [17] [%] | inhibition of growth at 10 µM [19] [%] | inhibition of growth at 10 µM [20] [%] | inhibition of growth at 10 µM [21] [%] | inhibition of growth at 10 µM [22] [%] | inhibition of growth at 10 µM [25] [%] | inhibition of growth at 10 µM [26] [%] | inhibition of growth at 10 µM [29] [%] | inhibition of growth at 10 µM [33] [%] | also measured
1 | O=C(CSc1nc2ccccc2c(=O)n1-c1ccc(Cl)c(Cl)c1)Nc1ccc(S(=O)(=O)Nc2ccc(Cl)nn2)cc1 | 10 | 11 | 18 | 14 | 20 | 31 | 15 | 28 |  |  |  |  |  |  |  |  |  |  |  |  | inhibition of growth at 10 µM [2]: 10%; inhibition of growth at 10 µM [3]: 12%; inhibition of growth at 10 µM [6]: 10%; inhibition of growth at 10 µM [12]: 14%
2 | O=C(CSc1nc2ccccc2c(=O)n1C1CCCCC1)Nc1ccc(S(=O)(=O)Nc2ccc(Cl)nn2)cc1 |  |  | 14 | 12 | 21 | 16 |  | 25 |  |  |  |  |  |  |  |  |  |  |  |  | inhibition of growth at 10 µM [13]: 10%
3 | O=C(CSc1nc2ccccc2c(=O)n1-c1ccc(S(=O)(=O)Nc2ccc(Cl)nn2)cc1)NCCc1ccccc1 | 22 | 20 |  | 27 | 29 |  | 20 | 12 | 10 | 13 | 15 | 21 | 10 | 20 | 23 | 16 | 37 | 11 | 11 | 24 | inhibition of growth at 10 µM [18]: 20%; inhibition of growth at 10 µM [23]: 11%; IC50 [24]: 3.14 µM; inhibition of growth at 10 µM [27]: 24%; inhibition of growth at 10 µM [28]: 14%; IC50 [30]: 3.49 µM; inhibition of growth at 10 µM [31]: 14%; inhibition of growth at 10 µM [32]: 14%
4 | O=C(CSc1nc2ccccc2c(=O)n1-c1ccc(S(=O)(=O)Nc2ccc(Cl)nn2)cc1)NCc1ccccc1 | 14 |  | 14 | 24 | 12 | 12 | 18 |  |  |  |  | 12 | 16 | 12 |  | 10 | 18 |  | 21 | 11 | inhibition of growth at 10 µM [34]: 18%; inhibition of growth at 10 µM [35]: 11%
5 | O=C(CSc1nc2ccccc2c(=O)n1-c1ccc(S(=O)(=O)Nc2ccc(Cl)nn2)cc1)Nc1ccccc1 | 10 |  | 12 | 18 | 13 | 11 | 35 |  | 13 | 10 | 13 |  | 15 | 18 | 27 |  | 15 | 12 | 11 | 17 | inhibition of growth at 10 µM [36]: 14%; inhibition of growth at 10 µM [28]: 11%; inhibition of growth at 10 µM [37]: 22%; inhibition of growth at 10 µM [31]: 18%; IC50 [38]: 4.76 µM; IC50 [39]: 4.46 µM
